For one data set, the target named is T1, serotonin transporter (Rattus norvegicus, UniProt P31652).
T1 construct: displace ^3H-paroxetine from male rat frontal cortical membranes; from tissue; host or cells: male rat frontal cortex membranes
Kind of data set: Displacement of 3H-paroxetine from male rat frontal cortical membranes (serotonin transporter affinity). The class given is binding. The settings on record: 3H-paroxetine displacement, read-out: 5-HT Transporter Affinity Ki. An excerpt:
Affinity of Compounds of the Invention for the Serotonin Transporter

Counter-ions that a name gives are not always drawn.

T1 sequence (P31652 whole entry): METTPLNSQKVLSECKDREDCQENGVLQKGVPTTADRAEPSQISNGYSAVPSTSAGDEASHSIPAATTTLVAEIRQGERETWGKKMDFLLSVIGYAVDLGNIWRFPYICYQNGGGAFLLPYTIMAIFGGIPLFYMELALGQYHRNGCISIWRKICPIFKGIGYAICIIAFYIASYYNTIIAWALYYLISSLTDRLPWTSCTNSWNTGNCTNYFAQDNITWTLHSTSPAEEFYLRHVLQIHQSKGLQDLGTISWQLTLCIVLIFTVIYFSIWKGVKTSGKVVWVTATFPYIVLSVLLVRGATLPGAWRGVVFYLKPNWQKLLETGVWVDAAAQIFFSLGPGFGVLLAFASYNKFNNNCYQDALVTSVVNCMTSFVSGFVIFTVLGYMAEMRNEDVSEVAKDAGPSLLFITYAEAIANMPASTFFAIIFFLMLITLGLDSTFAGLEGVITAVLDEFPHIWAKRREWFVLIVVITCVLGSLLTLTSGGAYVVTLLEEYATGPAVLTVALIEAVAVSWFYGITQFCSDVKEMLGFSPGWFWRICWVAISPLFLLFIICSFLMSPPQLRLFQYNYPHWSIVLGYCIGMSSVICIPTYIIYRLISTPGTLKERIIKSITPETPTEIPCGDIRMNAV

Turning to `Cc1ccc2c3c(ccc2n1)OC[C@H](CN1CCC(CCc2ccc4c(c2)NC(=O)CO4)CC1)O3` (as salt: hydrochloride) [Example 14, 6-[2-(1-{[(2S)-8-Methyl-2,3-dihydro[1,4]dioxino[2,3-f]quinolin-2-yl]methyl}piperidin-4-yl)ethyl]-2H-1,4-benzoxazin-3(4H)-one dihydrochloride salt], the melting point was in the range of 202 to 205 °C. Regarding `Cc1ccc2c3c(ccc2n1)OC[C@H](CN1CC[C@H](Oc2ccc4c(c2)NC(=O)CO4)C1)O3` (as salt: hydrochloride) [Example 8, 6-{[(3S)-1-{[(2S)-8-Methyl-2,3-dihydro[1,4]dioxino[2,3-f]quinolin-2-yl]methyl}pyrrolidin-3-yl]oxy}-2H-1,4-benzoxazin-3(4H)-one dihydrochloride salt], the melting point was 183 °C (dec.).

Compound `CNCCCOc1ccc2c(c1)NC(=O)CO2` (as salt: hydrochloride) [Example 11, 6-[3-(Methylamino)propoxy]-2H-1,4-benzoxazin-3(4H)-one] showed a melting point of 193 to 194 °C. `Cc1ccc2c3c(ccc2n1)OC[C@H](CN1CCCC(Cc2ccc4c(c2)N(C)C(=O)CO4)C1)O3` (stereo partly drawn) (as salt: hydrochloride) [Example 15, 4-Methyl-6-[(1-{[(2S)-8-methyl-2,3-dihydro[1,4]dioxino[2,3-f]quinolin-2-yl]methyl}piperidin-3-yl)methyl]-2H-1,4-benzoxazin-3(4H)-one dihydrochloride salt] gave a melting point of 249 to 251 °C.

In the case of `Cc1ccc2c3c(ccc2n1)OC[C@H](CNC1CCN(c2ccc4c(c2)NC(=O)CO4)CC1)O3` (as salt: hydrochloride) [Example 18, 6-(4-{[(8-methyl-2,3-dihydro[1,4]dioxino[2,3-f]quinolin-2-yl)methyl]amino}piperidin-1-yl)-2H-1,4-benzoxazin-3(4H)-one dihydrochloride salt], the melting point is 240 °C (dec.). Take `Cc1ccc2c3c(ccc2n1)OC[C@H](CN1CCC(Cc2ccc4c(c2)N(C)C(=O)CO4)CC1)O3` (as salt: hydrochloride) [Example 12, 4-Methyl-6-[(1-{[(2S)-8-methyl-2,3-dihydro[1,4]dioxino[2,3-f]quinolin-2-yl]methyl}piperidin-4-yl)methyl]-2H-1,4-benzoxazin-3(4H)-one dihydrochloride salt]: the melting point lay within 205 to 208 °C.

With `CNCCCOc1ccc2c(c1)NC(=O)CO2` [Example 11, 6-[3-(Methylamino)propoxy]-2H-1,4-benzoxazin-3(4H)-one], on serotonin transporter, the inhibition constant (Ki) was 81 nM. As for `CNCCCCOc1ccc2c(c1)NC(=O)CO2` (as salt: hydrochloride) [Example 10, 6-[4-(Methylamino)butoxy]-2H-1,4-benzoxazin-3(4H)-one hydrochloride salt], the melting point lay within 210 to 212 °C.

`Cc1ccc2c3c(ccc2n1)OC[C@H](CN1CCC(Oc2ccc4c(c2)N(C)C(=O)CO4)CC1)O3` (as salt: hydrochloride) [Example 5, 4-Methyl-6-[(1-{[(2S)-8-methyl-2,3-dihydro[1,4]dioxino[2,3-f]quinolin-2-yl]methyl}piperidin-4-yl)oxy]-2H-1,4-benzoxazin-3(4H)-one dihydrochloride salt]: the melting point is 164 °C (dec.).

`Cc1ccc2c3c(ccc2n1)OC[C@H](CN1CCC(Oc2ccc4c(c2)NC(=O)CO4)CC1)O3` (as salt: hydrochloride) [Example 1, 6-[(1-{[(2S)-8-methyl-2,3-dihydro[1,4]dioxino[2,3-f]quinolin-2-yl]methyl}piperidin-4-yl)oxy]-2H-1,4-benzoxazin-3(4H)-one dihydrochloride salt]: the melting point was 216 to 219 °C (dec.). In the case of `CNCCCCOc1ccc2c(c1)NC(=O)CO2` [Example 10, 6-[4-(Methylamino)butoxy]-2H-1,4-benzoxazin-3(4H)-one hydrochloride salt], the Ki at serotonin transporter is 58.5 nM. On to `Cc1ccc2c3c(ccc2n1)OC[C@H](CN1CC[C@@H](Oc2ccc4c(c2)NC(=O)CO4)C1)O3` (as salt: hydrochloride) [Example 9, 6-{[(3R)-1-{[(2S)-8-Methyl-2,3-dihydro[1,4]dioxino[2,3-f]quinolin-2-yl]methyl}pyrrolidin-3-yl]oxy}-2H-1,4-benzoxazin-3(4H)-one dihydrochloride salt], for which the melting point is 183 °C (dec.). On the same count and under the same terms, the figure for `Cc1ccc2c3c(ccc2n1)OC[C@H](CN1CCC(Cc2ccc4c(c2)NC(=O)CO4)CC1)O3` (as salt: hydrochloride) [Example 2, 6-[(1-{[(2S)-8-Methyl-2,3-dihydro[1,4]dioxino[2,3-f]quinolin-2-yl]methyl}piperidin-4-yl)methyl]-2H-1,4-benzoxazin-3(4H)-one dihydrochloride] is 215 °C (dec.). `Cc1ccc2c3c(ccc2n1)OC[C@H](CNCCCCOc1ccc2c(c1)NC(=O)CO2)O3` (as salt: hydrochloride) [Example 6, 6-[4-({[(2S)-8-Methyl-2,3-dihydro[1,4]dioxino[2,3-f]quinolin-2-yl]methyl}amino)butoxy]-2H-1,4-benzoxazin-3(4H)-one dihydrochloride salt]: the melting point was 143 °C (dec.).

For `Cc1ccc2c3c(ccc2n1)OC[C@H](CN1CCC(CCc2ccc4c(c2)N(C)C(=O)CO4)CC1)O3` (as salt: hydrochloride) [Example 13, 4-Methyl-6-[2-(1-{[(2S)-8-methyl-2,3-dihydro[1,4]dioxino[2,3-f]quinolin-2-yl]methyl}piperidin-4-yl)ethyl]-2H-1,4-benzoxazin-3(4H)-one dihydrochloride salt], the melting point is 185 to 189 °C.

Consider `Cc1ccc2c3c(ccc2n1)OC[C@H](CNCCCOc1ccc2c(c1)NC(=O)CO2)O3` (as salt: hydrochloride) [Example 7, 6-[3-({[(2S)-8-Methyl-2,3-dihydro[1,4]dioxino[2,3-f]quinolin-2-yl]methyl}amino)propoxy]-2H-1,4-benzoxazin-3(4H)-one dihydrochloride salt], for which the melting point was 184 °C (dec.).

As to `Cc1ccc2c3c(ccc2n1)OC[C@H](CN1CCCC(Cc2ccc4c(c2)NC(=O)CO4)C1)O3` (stereo partly drawn) (as salt: hydrochloride) [Example 16, 6-[(1-{[(2S)-8-Methyl-2,3-dihydro[1,4]dioxino[2,3-f]quinolin-2-yl]methyl}piperidin-3-yl)methyl]-2H-1,4-benzoxazin-3(4H)-one dihydrochloride salt], the melting point lay in the range of 200 to 205 °C.
